In experiment [1] the test system is Pf gametocytes stage V 3D7elo1-pfs16-CBG99. Nature of the experiment: gametocyte susceptibility assay (luciferase viability). Type of experiment: cell-based, P. falciparum. The settings on record: Plasmodium falciparum, 72 h, mean ± SD of three experiments. Here is the method: The transgenic P. falciparum 3D7 strain 3D7elo1-pfs16-CBG99 expressing the Pyrophorus plagiophthalamus CBG99 luciferase under a gametocyte specific promoter was used in all the experiments. Parasites were cultured and gametocytes obtained as previously described. Late-stage gametocytes were exposed to compounds at day 11 after N-acetylglucosamine (NAG) addition. Gametocytes stages were counted in Giemsa stained smears and the percentage of stage V gametocytes was higher than 80%. Compounds were prepared by serial dilution, in 96-well plate, in complete medium. Plates were incubated for 72 h at 37 °C under 1% O2, 5% CO2, 94% N2 atmosphere. Luciferase activity was taken as measure of gametocytes viability, as previously described. Briefly, drug-treated gametocyte samples at 2% haematocrit were transferred to 96-well black microplates and D-luciferin (1 mM in citrate buffer 0.1 M, pH 5.5) was added at a 1:1 volume ratio. Luminescence measurements were performed after 10 min with 500 ms integration time using a Sinergy 4 (Biotek) microplate reader. The IC50 was extrapolated from the non-linear regression analysis of the concentration–response curve.

Experiment [2] concerns S. mansoni adult worm pairs. Nature of the experiment: adult worm pair viability assay (phenotypic score). In kind it is cell-based. The settings on record: 20 μM, 7 days. The source says:
(§1) A Puerto Rican strain of S. mansoni was maintained by passage through albino Biomphalaria glabrata, as the intermediate host, and ICR (CD-1) outbred female mice as previously described. Female 4 to 7-week-old mice (Envigo, Udine, Italy) were infected with 200–400 double sex S. mansoni cercariae by the tail immersion technique. Adult pairs were harvested from mice 7–8 weeks after infection by reversed perfusion of the hepatic portal system and mesenteric veins. For the viability assays, 5 couples were incubated with the compounds in 3 mL DMEM complete tissue culture medium containing 10% FBS for up to 7 days and phenotypic score was assigned as previously described. For egg-treatment, 5 worm pairs were incubated for 48 h in 3 mL complete tissue culture medium; next the parasites were removed and vehicle (DMSO) or compounds 1–3 were added to each plate containing the eggs previously laid in vitro and observed for 72 h as previously reported. Briefly, images were recorded with a BX41 Olympus microscope and a bright field objective 10× served by a SPOT RT 220-3 Diagnostic Instrument Inc camera. Egg maturation/morphological score was assigned based on the Vogel and Prata’ staging system of egg maturation.

Experiment [3] relates to L. infantum amastigotes. Nature of the experiment: intracellular amastigote susceptibility assay in THP-1 macrophages. In kind it is cell-based. The settings on record: for IC50: Leishmania infantum, intracellular amastigotes in THP-1 macrophages, 72 h, mean of two experiments in triplicate; for SIa: SIa = IC50 HMEC-1/IC50 L. infantum amastigotes. As to the method:
Cells were washed and infected with metacyclic L. infantum promastigotes at a macrophage/promastigote ratio of 1/10 for 24 h. Cell monolayers were then washed and incubated in the presence of test compounds for 72 h. Slides were fixed with methanol and stained with Giemsa. The percentage of infected macrophages in treated and non-treated cells was determined by light microscopy.

The subject of experiment [4] is L. tropica promastigotes (MHOM/IT/2012/ISS3130). Nature of the experiment: promastigote susceptibility MTT assay, L. tropica. The settings on record: for IC50: Leishmania tropica, promastigote stage, 72 h, MTT, mean ± SD of three experiments; for SIp (L. tropica): SIp = IC50 HMEC-1/IC50 L. tropica promastigotes. Type of experiment: cell-based. As to the method:
(§2) Promastigote stage of L. infantum strain MHOM/TN/80/IPT1 and L. tropica (MHOM/IT/2012/ISS3130) were cultured in Schneider’s Drosophila medium (Lonza) supplemented with 10% heat-inactivated fetal calf serum (HyClone) at 24 °C.
(§3) The complete medium used for antileishmanial activity assay was RPMI (EuroClone) supplemented with 10% heat-inactivated fetal calf serum (EuroClone), 20 mM Hepes, and 2 mM L-glutamine. To estimate the 50% inhibitory concentration (IC50), the MTT (3-[4.5-dimethylthiazol-2-yl]-2.5-diphenyltetrazolium bromide) method was used. Compounds were dissolved in DMSO and then diluted with medium to achieve the required concentrations. Drugs were placed in 96-well round-bottom microplates and seven serial dilutions made. Amphotericin B was used as the reference anti-leishmanial drug. Parasites were diluted in complete medium to 5 × 10^6 parasites/mL and 100 μL of the suspension was seeded into the plates, incubated at 24 °C for 72 h and then 20 µL of MTT solution (5 mg/mL) was added into each well for 3 h. The plates were then centrifuged, the supernatants discarded and the resulting pellets dissolved in 100 µL of lysing buffer consisting of 20% (w/v) of a solution of SDS (Sigma), 40% of N,N-dimethylformamide (Merck) in H2O. The absorbance was measured spectrophotometrically at a test wavelength of 550 nm and a reference wavelength of 650 nm. The results are expressed as IC50 which is the dose of compound necessary to inhibit parasite growth by 50%; each IC50 value is the mean ± standard deviation of separate experiments performed in duplicate.

Experiment [5] concerns HMEC-1 (human microvascular endothelial cells). Nature of the experiment: cytotoxicity MTT assay on HMEC-1. Type of experiment: cell-based. The settings on record: mean ± SD of three experiments in duplicate. Here is the method: (§4) The long-term human microvascular endothelial cell line (HMEC-1) was maintained in MCDB 131 medium (Invitrogen, Milan, Italy) supplemented with 10% fetal calf serum (HyClone, Celbio, Milan, Italy), 10 ng/mL of epidermal growth factor,1 µg/ml of hydrocortisone, 2 mM glutamine and 20 mM Hepes buffer (EuroClone). For the cytotoxicity assays, HMEC-1 were plated at 10^5 cells/mL in 96-well flat bottom microplates. THP-1 cells were plated at 5 × 10^5 cells/mL in 96-well flat bottom microplates and treated with 0.1 μM PMA for 48 h to achieve differentiation into macrophages. Cells were then treated with serial dilutions of test compounds and cell proliferation evaluated using the MTT assay described for promastigotes. The results are expressed as IC50, which is the dose of compound necessary to inhibit cell growth by 50%.

The subject of experiment [6] is P. falciparum W2 (CQ-resistant) strain. Nature of the experiment: antiplasmodial pLDH drug susceptibility assay, asexual parasites, W2 strain. Type of experiment: cell-based. The settings on record: for IC50: Plasmodium falciparum, read-out: W2 IC50; for SI W2: SI = IC50 HMEC-1/IC50 P. falciparum W2. As to the method: (§5) P. falciparum cultures were carried out according to Trager and Jensen with slight modifications. The CQ-sensitive strain D10 and the CQ-resistant strain W2 were maintained at 5% hematocrit (human type A-positive red blood cells) in RPMI 1640 (EuroClone, Celbio) medium with the addition of 1% AlbuMax (Invitrogen, Milan, Italy), 0.01% hypoxanthine, 20 mM Hepes, and 2 mM glutamine at 37 °C in a standard gas mixture (1% O2, 5% CO2, and 94% N2). […] Drugs were placed in 96-well flat-bottomed microplates and serial dilutions made. Asynchronous cultures with parasitaemia of 1%–1.5% and 1% final hematocrit were aliquoted into the plates and incubated for 72 h at 37 °C. Parasite growth was determined spectrophotometrically (OD650) by measuring the activity of the parasite lactate dehydrogenase (pLDH), according to a modified version of the method of Makler in control and drug-treated cultures. The antiplasmodial activity is expressed as 50% inhibitory concentrations (IC50); each IC50 value is the mean ± standard deviation of at least three separate experiments performed in duplicate.

The test system of experiment [7] is L. infantum promastigotes (strain MHOM/TN/80/IPT1). Nature of the experiment: promastigote susceptibility MTT assay, L. infantum. In kind it is cell-based. The settings on record: for IC50: Leishmania infantum, promastigote stage, 72 h, MTT, mean ± SD of three experiments; for SIp (L. infantum): SIp = IC50 HMEC-1/IC50 L. infantum promastigotes. As to the method:
as §2, §3

Experiment [8] concerns P. falciparum D10 (CQ-sensitive) strain. Nature of the experiment: antiplasmodial pLDH drug susceptibility assay, asexual parasites, D10 strain. In kind it is cell-based. The settings on record: for IC50: Plasmodium falciparum, read-out: D10 IC50; for SI D10: SI = IC50 HMEC-1/IC50 P. falciparum D10. Here is the method: as §5
Experiment [9] relates to THP-1 (human acute monocytic leukemia cells). Nature of the experiment: cytotoxicity MTT assay on THP-1 differentiated into macrophages. The settings on record: PMA-differentiated macrophages, mean of two experiments in duplicate. Type of experiment: cell-based. As to the method: as §4
In experiment [10] the test system is S. mansoni in vitro laid eggs (IVLEs). Nature of the experiment: in vitro laid eggs (IVLEs) maturation/morphology assay. Type of experiment: cell-based. The settings on record: 72 h.
Text: as §1

Where [11] appears, read: asexual parasites, CQ-resistant W2 strain, 72 h, pLDH, mean ± SD of three experiments in duplicate.
Setting [12] is: asexual parasites, CQ-sensitive D10 strain, 72 h, pLDH, mean ± SD of three experiments in duplicate.

Read-outs that look alike come from different tables or passages of the source.

In turn, `CN(C)c1ccc2nc3ccc(=[N+](C)C)cc-3sc2c1` [Methylene blue, reference compound] yielded an IC50 in experiment [1] of 0.155 ± 0.05 µM.
Consider `CC1=CCC[C@H]2[C@](C)(CC3=CC(=O)C4=C(C3=O)S(=O)(=O)CCN4)[C@@H](C)CC[C@]12C` [Thiazoavarone (2), thiazoavarone], for which the “effect on adult stage viability” value in experiment [2] is reported as “poorly effective”. Moreover, the concentration for half-maximal inhibition (IC50) came out at 4.99 µM in experiment [3]; 9.52 ± 0.32 µM in [4]; 3.31 ± 1.53 µM in experiment [5]; 0.21 ± 0.03 µM in [6] (setting [11]); 8.78 ± 0.26 µM in [7]; 15 ± 3.19 µM in [1]. Besides, the IC50 in experiment [8] (setting [12]) is 0.38 ± 0.15 µM; in [9], 7.41 µM. Also, in [3], the SIa is 0.67. Also, the “SIp (L. tropica)” value in experiment [4] is reported as 0.35. Further, the “SI W2” value in experiment [6] is given as 15.8. Besides, the “SIp (L. infantum)” value in [7] came out at 0.38. For the same molecule, in experiment [8], the “SI D10” value came to 8.7. Moreover, the “effect on egg maturation (IVLEs)” value in [10] (5 μM) was “impairing eggs maturation”; in experiment [10] (20 μM), “undeveloped and severely damaged eggs”.
As for `C[C@@H]1[C@H](O)[C@@H](C)/C=C/C=C/C=C/C=C/C=C/C=C/C=C/[C@H](O[C@@H]2O[C@H](C)[C@@H](O)[C@H](N)[C@@H]2O)C[C@@H]2O[C@](O)(C[C@@H](O)C[C@@H](O)[C@H](O)CC[C@@H](O)C[C@@H](O)CC(=O)O[C@H]1C)C[C@H](O)[C@H]2C(=O)O` [Amphotericin B, reference compound], the results for the IC50 in experiment [3], in experiment [4] and in experiment [7] were 0.189 µM, 0.17 ± 0.04 µM and 0.2 ± 0.03 µM, respectively.
Regarding `CC1=CCC[C@H]2[C@](C)(Cc3cc(O)ccc3O)[C@@H](C)CC[C@]12C` [Avarol (3), avarol], the “survival of adult worm pairs” value in experiment [2] amounted to 20%. The IC50 in experiment [3] turned out to be 3.19 µM; in experiment [4] it was 7.08 ± 1.91 µM; in [5], 36.9 ± 5.79 µM; in experiment [6] (setting [11]) it was 1.1 ± 0.15 µM; in [7] it was 7.42 ± 0.27 µM; in experiment [1] it was 9.3 ± 1.9 µM. The IC50 was determined as 0.96 ± 0.24 µM in experiment [8] (setting [12]) and 31.8 µM in experiment [9]. The SIa in experiment [3] is on record as 11.6; in experiment [3] (listed as avarol 3), “greater than 10”. The “SIp (L. tropica)” value in [4] came out at 5.2. Also, the “SI W2” value in experiment [6] is reported as 33.5. For the same molecule, the “SIp (L. infantum)” value in experiment [7] is 5.0. The “SI D10” value in experiment [8] stood at 38.4.
On to `CC[C@@]1(O)C(=O)OCc2c1cc1n(c2=O)Cc2cc3ccccc3nc2-1` [Camptothecin, reference compound], for which it took 0.018 µM to reach half-maximal inhibition in [5] (IC50).
As to `CC1=CCC[C@H]2[C@](C)(CC3=CC(=O)C=CC3=O)[C@@H](C)CC[C@]12C` [Avarone (1), avarone], the IC50 in experiment [3] worked out at 7.64 µM; in [4] it was 20.3 ± 3.56 µM; in [5], 62.2 ± 1.98 µM; in [6] (setting [11]), 2.09 ± 0.52 µM; in experiment [7], 28.2 ± 0.32 µM; in experiment [1], 15.5 ± 5.26 µM. Moreover, the IC50 was 2.74 ± 0.51 µM in experiment [8] (setting [12]) and greater than 100 µM in experiment [9]. This molecule also yielded an SIa in [3] of 8.1. Further, in [4], the “SIp (L. tropica)” value was found to be 3.1. In addition, in [6], the “SI W2” value is given as 29.8. The “SIp (L. infantum)” value in experiment [7] is 2.2. Moreover, in experiment [8], the “SI D10” value stood at 22.7.
Regarding `CCN(CC)CCCC(C)Nc1ccnc2cc(Cl)ccc12` (stereo not drawn) [Chloroquine (CQ), Chloroquine, reference compound], the IC50 in [6] (W2, 72 h) was 0.54 µM; in experiment [8] (D10, 72 h), 0.04 µM.

Source of the values: PMC7074381, “Investigating the Antiparasitic Potential of the Marine Sesquiterpene Avarone, Its Reduced Form Avarol, and the Novel Semisynthetic Thiazinoquinone Analogue Thiazoavarone” (Marine Drugs, 2020).
